In article PMC4795541, “A Rapid and Quantitative Flow Cytometry Method for the Analysis of Membrane Disruptive Antimicrobial Activity” (PLoS ONE, 2016):
Read-outs that look alike come from different tables or passages of the source. Marks after values point to notes of the source that are not given here. Where no end group is shown, it is not given here.

Columns and labels:
[1] = tested on: E. faecalis ATCC 29212
Excerpt: (§1) The bacterial strains; Fusobacterium nucleatum ATCC 25586, Streptococcus mutans Ingbritt, Staphylococcus aureus (MSSA) ATCC 29213; Staphylococcus aureus (MRSA) ATCC 43300; Enterococcus faecalis ATCC 29212; Enterobacter aerogenes ATCC 13048; Pseudomonas aeruginosa strain PAO1-LAC, ATCC 47085; Klebsiella pneumoniae ATCC 13883; Acinetobacter baumannii strain 2208, ATCC 19606; Escherichia coli ATCC 25922 lyophilised or glycerol stocks were obtained from the culture collection of the Oral Health Cooperative Research Centre, The Melbourne Dental School, University of Melbourne, Australia. These strains were selected for this study as they are widely used in antimicrobial studies and are considered to be important pathogens and major targets for antibiotic resistant studies. Bacteria were grown aerobically and maintained by passage at ambient temperature (E. coli, K. pneumoniae, A. baumannii and S. aureus strains) or at 37°C (P. aeruginosa, E. faecalis and E. aerogenes) on horse blood agar (10% v/v defibrinated horse blood, 4.4% w/v Oxoid Blood Agar Base No. 2). S. mutans and F. nucleatum were grown anaerobically (MK3 anaerobic workstation, Don Whitley Scientific Limited, England) and maintained by passage at 37°C on Todd Hewitt agar (3.6% w/v Oxoid Todd-Hewitt Broth, 1.5% w/v sucrose, 1.5% w/v BactoTM Agar, 0.8% w/v Oxoid Yeast Extract) or horse blood agar, respectively. For the antimicrobial peptide assays a 20 mL starter culture was produced by taking single colonies from blood or Todd Hewitt agar plates, respectively, to inoculate either: Luria Broth (LB; 1% w/v BactoTM Tryptone, 1% w/v NaCl, 0.5% w/v Oxoid Yeast Extract, pH 7.5, Thermo Scientific Pty, Ltd, Sydney, Australia) for bacteria; E. coli, K. pneumoniae, P. aeruginosa, A. baumannii, E. faecalis, E. aerogenes and S. aureus which were grown aerobically at 37°C, or Todd Hewitt broth (3.6% w/v Oxoid Todd-Hewitt Broth, 1.5% w/v sucrose, 0.8% w/v Oxoid Yeast 9 Extract) for S. mutans, or Brain Heart Infusion broth (BHI; 3.7% w/v Oxoid BHI, 0.05% w/v L-cysteine) for F. nucleatum which were both grown anaerobically at 37°C. After overnight incubation, 0.5–2.0 mL of the starter culture was used to inoculate the appropriate fresh broth (200 mL) and growth monitored at 650 nm using a spectrophotometer (model 275E; Perkin-Elmer, Sydney, Australia) with culture purity checked by microscopic examination and culture. Bacteria were harvested during late exponential growth phase and viability and bacteria/mL determined using a BacLight viability kit (Invitrogen, Sydney, Australia) and a Quanta SC-MPL flow cytometer (Beckman coulter Pty, Ltd, Sydney, Australia).
(§2) Antibacterial assays were undertaken to determinate the minimum inhibitory concentration (MIC), minimum bactericidal concentration (MBC) and minimum membrane disruptive concentration (MDC) of each of the antimicrobial peptides (AMP) and AMP analogues (S1 Table). For each bacterim a stock solution (2.5 × 10^6 cells/mL) in the respective media was made and an aliquot incubated with AMPs within 15 minutes from viable cell count and stock preparation. All AMPs were dissolved in DMSO and a 500 μM stock solution prepared by adding the respective media and serial dilutions (250–0.244 μM) of the AMP in media (100 μL/well) made just prior addition of bacteria. […] One hundred microliter aliquots of the bacterial stock solution (2.5 × 10^5 cells/well) were added to the AMP serial dilutions and incubated at 37°C for 90 min. Assay preparation and incubations were conducted in aerobic or anaerobic conditions dependent on the bacteria. Bacteria were also incubated in the absence of AMP to serve as a growth control for the assay. After the 90 minute incubation period the antimicrobial activity (MIC, MBC and MDC) was determined as follows;
(§3) For determination of MBC, the CLSI protocol was followed, with the modifications being that due to the rapid action of the AMPs the assay incubation time was shortened from 16–20 hours to 90 minutes.

[2] = tested on: E. coli ATCC 25922
Excerpt: as §1, §2, §3

[3] = tested on: S. aureus (MSSA) ATCC 29213
Excerpt: as §1, §2, §3

[4] = tested on: A. baumannii strain 2208, ATCC 19606
Excerpt: as §1, §2, §3

[5] = tested on: S. aureus (MRSA) ATCC 43300
Excerpt: as §1, §2, §3

[6] = tested on: E. aerogenes ATCC 13048
Excerpt: as §1, §2, §3

[7] = tested on: K. pneumoniae ATCC 13883
Excerpt: as §1, §2, §3

[8] = tested on: P. aeruginosa strain PAO1-LAC, ATCC 47085
Excerpt: as §1, §2, §3

[9] = tested on: E. faecalis ATCC 29212; remark: listed apart in the source
Excerpt: as §1, §2
(§4) For MIC the CLSI broth microdilution assay was followed as we have previously described.

[10] = tested on: E. coli ATCC 25922; remark: listed apart in the source
Excerpt: as §1, §2, §4

[11] = tested on: S. aureus (MSSA) ATCC 29213; remark: listed apart in the source
Excerpt: as §1, §2, §4

[12] = tested on: A. baumannii strain 2208, ATCC 19606; remark: listed apart in the source
Excerpt: as §1, §2, §4

[13] = tested on: S. aureus (MRSA) ATCC 43300; remark: listed apart in the source
Excerpt: as §1, §2, §4

[14] = tested on: E. aerogenes ATCC 13048; remark: listed apart in the source
Excerpt: as §1, §2, §4

[15] = tested on: K. pneumoniae ATCC 13883; remark: listed apart in the source
Excerpt: as §1, §2, §4

[16] = tested on: P. aeruginosa strain PAO1-LAC, ATCC 47085; remark: listed apart in the source
Excerpt: as §1, §2, §4

[17] = tested on: S. mutans Ingbritt; conditions: Ingbritt
Excerpt: as §1, §2, §3

[18] = tested on: F. nucleatum ATCC 25586; conditions: ATCC 25586
Excerpt: as §1, §2, §3

[19] = tested on: S. mutans Ingbritt; conditions: Ingbritt, 24 h
Excerpt: as §1, §2, §4

[20] = tested on: F. nucleatum ATCC 25586; conditions: ATCC 25586, 24 h
Excerpt: as §1, §2, §4

[21] = E. faecalis ATCC 29212, 90 min incubation, average of 3 assays ± SD
[22] = E. coli ATCC 25922, 90 min incubation, average of 3 assays ± SD
[23] = S. aureus (MSSA) ATCC 29213, 90 min incubation, average of 3 assays ± SD
[24] = A. baumannii strain 2208, ATCC 19606, 90 min incubation, average of 3 assays ± SD
[25] = S. aureus (MRSA) ATCC 43300, 90 min incubation, average of 3 assays ± SD
[26] = E. aerogenes ATCC 13048, 90 min incubation, average of 3 assays ± SD
[27] = K. pneumoniae ATCC 13883, 90 min incubation, average of 3 assays ± SD
[28] = P. aeruginosa PAO1-LAC, ATCC 47085, 90 min incubation, average of 3 assays ± SD

## GLLSVLGSVAKHVLPHVVPVIAEHL-NH2 [Caerin 1.1]
[1]; [21]
  MBC: 17.5 ± 10.6 µM
[2]; [22]
  MBC: 15.6 ± 0.4 µM
[3]; [23]
  MBC: 9.9 ± 2.3 µM
[4]; [24]
  MBC: 3.0 ± 1.0 µM
[5]; [25]
  MBC: 13.9 ± 2.4 µM
[6]; [26]
  MBC: 51.1 ± 6.3 µM
[7]; [27]
  MBC: 20.0 ± 7.1 µM
[8]; [28]
  MBC: 51.4 ± 27.1 µM
[9]; [21]
  MIC: 27.1 ± 15.0 µM
[10]; [22]
  MIC: 8.45±0.2^e μM
[11]; [23]
  MIC: 5.5±0.2^e μM
[12]; [24]
  MIC: 3.1 ± 0.4 µM
[13]; [25]
  MIC: 4.9±0.4^e μM
[14]; [26]
  MIC: 40.0 ± 8.2 µM
[15]; [27]
  MIC: 14.6 ± 5.1 µM
[16]; [28]
  MIC: 39.3 ± 21.4 µM

## KNLRRIIRKIIHIIKKYG [Ovispirin]
[1]; ATCC 29212
  MBC: 72.4 ± 13.7 µM
[2]; ATCC 25922
  MBC: 8.5 ± 0.7 µM
[3]; ATCC 29213
  MBC: 139.7 ± 25.8 µM
[4]; ATCC 19606
  MBC: 2.0 ± 1.0 µM
[17]
  MBC: 11.3 ± 5.3 µM
[5]; ATCC 43300
  MBC: >250 µM
[6]; ATCC 13048
  MBC: 135.2 ± 26.3 µM
[7]; ATCC 13883
  MBC: 21.7 ± 3.7 µM
[18]
  MBC: 4.7 ± 3.5 µM
[8]; PAO1
  MBC: 95.9 ± 9.8 µM
[9]; ATCC 29212, 24 h
  MIC: 78.8 ± 40.7 µM
[10]; ATCC 25922, 24 h
  MIC: 9.6 ± 3.9 µM
[11]; ATCC 29213, 24 h
  MIC: 138.5 ± 24.5 µM
[12]; ATCC 19606, 24 h
  MIC: 2.6 ± 1.1 µM
[19]
  MIC: 16.5 ± 1.7 µM
[13]; ATCC 43300, 24 h
  MIC: >250 µM
[14]; ATCC 13048, 24 h
  MIC: 45.9±13.8^e μM
[15]; ATCC 13883, 24 h
  MIC: 7.7±0.1^e μM
[20]
  MIC: 4.2 ± 2.9 µM
[16]; PAO1, 24 h
  MIC: 90.6 ± 7.5 µM
